Assay results reported in paper PMC11174489, “In Vitro Activation of Human Adrenergic Receptors and Trace Amine-Associated Receptor 1 by Phenethylamine Analogues Present in Food Supplements” (Nutrients, 2024).

Assays:
Type in all cases: cell-based
[1] = molecular target: T1, human trace amine-associated receptor 1 (TAAR1) (Homo sapiens, UniProt Q96RJ0); test: TAAR1 activation, intracellular cAMP (ELISA) in HEK293T cells stably expressing human TAAR1; details: for EC50: cAMP, HEK293T-hTAAR1 cells, 1 h exposure, average (95% confidence interval), 3–5 experiments; for Emax / Emax at 300 µM: HEK-293T; for Emax at 300 µM: read-out: TAAR1 effect at 300 µM, at 300 µM, % of the maximal effect obtained by phenethylamine, compounds that showed only an effect at 300 µM
T1 construct: expressed in transfected cells
T1 sequence (Q96RJ0 1-339): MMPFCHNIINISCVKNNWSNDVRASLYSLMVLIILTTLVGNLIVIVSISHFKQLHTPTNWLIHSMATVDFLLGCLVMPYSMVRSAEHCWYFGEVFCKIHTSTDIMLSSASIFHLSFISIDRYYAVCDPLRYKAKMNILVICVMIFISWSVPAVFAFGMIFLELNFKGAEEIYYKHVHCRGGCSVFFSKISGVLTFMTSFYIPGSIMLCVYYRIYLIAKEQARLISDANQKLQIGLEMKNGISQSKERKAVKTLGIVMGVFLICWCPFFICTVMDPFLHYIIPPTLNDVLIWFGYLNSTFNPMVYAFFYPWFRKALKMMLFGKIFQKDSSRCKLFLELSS
Method: The cells were seeded (90,000–250,000 cells/well) in a 48-well plate two days before the assay. Two hours before the assay, the cells were incubated with the culture medium containing 10% charcoal-stripped foetal bovine serum (Gibco, Grand Island, NY, USA). The assay was performed in Earle’s balanced salt solution (EBSS) (Gibco, Paisley, UK), containing 15 mM HEPES (Gibco, Paisley, UK), 1 mM IBMX and 0.02% ascorbic acid. First, the cells were pre-incubated for 20 min in the supplemented buffer. Subsequently, the cells were exposed to the test compounds for 1 h in an incubator at 37 °C with 5% CO2. After 1 h, the buffer was discarded and the cells were lysed with 3% trichloroacetic acid and incubated at room temperature on a plate shaker for 2 h. Cell lysates were further diluted and cAMP was measured using a cAMP ELISA kit (Cayman Chemical, Ann Arbor, MI, USA), according to the manufacturer’s protocol.
Concentration–response relationships are shown as mean ± SD.

[2] = molecular target: T2, human adrenergic receptor (ADR) α1B (Homo sapiens, UniProt P35368); test: ADRα1B activation, Ca2+ influx (Fluo-8) in overexpressing chem-1 cells; details: for ADRα1B Emax: % of maximal signal obtained by adrenaline, average (95% CI); for Emax: Chem-1, read-out: ADRα1B Emax
T2 construct: host or cells: rat chem-1 cells
T2 sequence (P35368 1-520): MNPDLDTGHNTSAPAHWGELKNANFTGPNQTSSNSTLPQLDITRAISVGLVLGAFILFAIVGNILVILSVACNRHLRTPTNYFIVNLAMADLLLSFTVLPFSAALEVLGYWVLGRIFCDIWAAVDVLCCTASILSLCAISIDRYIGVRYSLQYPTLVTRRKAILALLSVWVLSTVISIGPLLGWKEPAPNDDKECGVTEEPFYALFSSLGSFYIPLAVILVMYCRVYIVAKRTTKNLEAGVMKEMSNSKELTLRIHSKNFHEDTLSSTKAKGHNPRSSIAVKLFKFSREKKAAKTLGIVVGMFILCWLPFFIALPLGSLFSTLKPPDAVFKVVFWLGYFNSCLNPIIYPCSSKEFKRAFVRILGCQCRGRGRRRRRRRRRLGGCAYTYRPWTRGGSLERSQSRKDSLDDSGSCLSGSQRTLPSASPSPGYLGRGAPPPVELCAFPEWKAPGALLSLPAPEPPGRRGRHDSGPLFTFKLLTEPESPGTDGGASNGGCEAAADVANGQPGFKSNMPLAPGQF
Source text: Cells overexpressing human ADRs α1A, α1B, α1D, α2A, α2B, β1 and β2 (Eurofins Discovery Services, St. Charles, MO, USA, product numbers: HTS087RTA, HTS158RTA, HTS216RTA, HTS096RTA, HTS157LRTA, HTS104RTA and HTS073RTA, respectively) were used to study the potency (EC50) and efficacy (Emax) of the selected compounds for these receptors by quantifying Ca^2+ influx upon receptor activation. ADRα1A, α1B, α1D, α2A, β1 and β2 were overexpressed in rat chem-1 cells. ADRα2B was overexpressed in HEK293 cells. The cells were seeded (10,000–50,000 cells/well) in a black 96-well plate (VWR International, Leuven, Belgium) and incubated at 37 °C and 5% CO2 for 24 h. After 24 h, the cells were washed with Hank’s balanced salt solution (HBSS) (Gibco, Paisley, UK) containing 0.35 g/L sodium bicarbonate and incubated with 5 µg/mL Fluo-8 AM in HBSS (pH 7.4) supplemented with 2.5 mM probenecid for 1 h. […] Peak tops of the obtained fluorescence response–time curves were corrected for baseline fluorescence and used to construct concentration–response relationships.
Concentration–response relationships for TAAR1 activation are presented as percentages of the maximal intracellular cAMP level induced by full the TAAR1 agonist phenethylamine and corrected for baseline cAMP accumulation. […] Experiments were run in duplicate in 7–9 independent experiments for ADR and were run in 3–5 independent experiments for TAAR1.

[3] = molecular target: T3, human adrenergic receptor (ADR) α2A (Homo sapiens, UniProt P08913); test: ADRα2A activation, Ca2+ influx (Fluo-8) in overexpressing chem-1 cells; details: for EC50: Ca2+ response, chem-1 cells, average (95% confidence interval), 7–9 experiments; for potency at ADRα2A, times lower compared to adrenaline: relative to the endogenous agonist adrenaline
T3 construct: host or cells: rat chem-1 cells
T3 sequence (P08913 1-465): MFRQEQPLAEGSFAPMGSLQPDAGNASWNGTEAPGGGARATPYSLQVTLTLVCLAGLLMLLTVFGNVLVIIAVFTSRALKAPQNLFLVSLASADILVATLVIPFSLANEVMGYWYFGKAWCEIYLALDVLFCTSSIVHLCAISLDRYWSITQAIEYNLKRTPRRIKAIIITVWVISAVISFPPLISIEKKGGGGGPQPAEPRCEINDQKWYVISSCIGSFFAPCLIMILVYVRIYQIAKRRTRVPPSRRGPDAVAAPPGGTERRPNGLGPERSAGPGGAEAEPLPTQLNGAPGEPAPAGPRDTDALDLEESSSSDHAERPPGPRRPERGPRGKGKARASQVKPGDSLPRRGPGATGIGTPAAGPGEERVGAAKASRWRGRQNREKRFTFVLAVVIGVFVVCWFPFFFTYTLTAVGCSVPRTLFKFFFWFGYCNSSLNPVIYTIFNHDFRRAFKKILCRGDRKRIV

[4] = molecular target: T4, human adrenergic receptor (ADR) β2 (Homo sapiens, UniProt P07550); test: ADRβ2 activation, Ca2+ influx (Fluo-8) in overexpressing chem-1 cells; details: for ADRβ2 Emax: % of maximal signal obtained by adrenaline, average (95% CI); for EC50: Ca2+ response, chem-1 cells, average (95% confidence interval), 7–9 experiments
T4 construct: host or cells: rat chem-1 cells
T4 sequence (P07550 whole entry): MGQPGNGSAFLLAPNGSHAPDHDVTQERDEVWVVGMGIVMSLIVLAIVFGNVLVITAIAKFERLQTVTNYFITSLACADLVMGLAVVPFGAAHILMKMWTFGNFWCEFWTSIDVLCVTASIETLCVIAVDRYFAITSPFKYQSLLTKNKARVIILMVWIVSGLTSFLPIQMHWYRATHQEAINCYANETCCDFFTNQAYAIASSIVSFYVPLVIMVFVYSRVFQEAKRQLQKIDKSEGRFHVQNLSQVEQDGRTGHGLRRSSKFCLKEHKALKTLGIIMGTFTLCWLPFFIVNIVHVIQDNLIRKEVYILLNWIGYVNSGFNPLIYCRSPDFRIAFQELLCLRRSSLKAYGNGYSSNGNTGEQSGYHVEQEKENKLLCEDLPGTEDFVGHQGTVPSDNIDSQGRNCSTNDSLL

[5] = % of maximal cAMP level obtained by phenethylamine, average (95% CI)

CNC(C)C(O)c1ccc(O)cc1 (stereo not drawn) [Methylsynephrine]
TAAR1 Emax [1, 5]: -
EC50 [1]: > 300 µM
activation of TAAR1 ([1]; concentrations up to 300 µM): did not activate
EC50 [2]: > 300 µM
ADRα1B Emax [2]: -
EC50 [3]: > 300 µM
ADRβ2 Emax [4]: -
EC50 [4]: > 300 µM

NCC(O)c1ccc(O)cc1 (stereo not drawn) [p-Octopamine, p-octopamine]
Emax [1, 5]: 85%
EC50 [1]: 46 µM
EC50 [2]: 3.9 µM
Emax [2]: 94%
EC50 [3]: > 300 µM
ADRβ2 Emax [4]: -
EC50 [4]: > 300 µM

Oc1ccc(CC2NCCc3cc(O)c(O)cc32)cc1 (stereo not drawn) [Higenamine, higenamine]
Emax [1, 5]: 93%
EC50 [1]: 0.98 µM
EC50 [2]: > 300 µM
ADRα1B Emax [2]: -
EC50 [3]: > 300 µM
EC50 [4]: 0.47 µM
Emax ([4]; Chem-1): 31%
potency at ADRβ2, times less potent than adrenaline ([4]; relative to the full agonist adrenaline): seven

NCCc1ccccc1 [Phenethylamine, phenethylamine]
Emax [1, 5]: 97%
EC50 [1]: 8.8 µM
EC50 [2]: > 300 µM
ADRα1B Emax [2]: -
EC50 [3]: > 300 µM
ADRβ2 Emax [4]: -
EC50 [4]: > 300 µM

CC(C)CCCC(C)N (stereo not drawn)
Emax at 300 µM [1]: 36%
EC50 [1]: > 300 µM
EC50 [2]: > 300 µM
ADRα1B Emax [2]: -
EC50 [3]: > 300 µM
ADRβ2 Emax [4]: -
EC50 [4]: > 300 µM

CN(C)CCO [Dimethylaminoethanol, dimethylaminoethanol]
Emax at 300 µM [1]: ~5%
EC50 [1]: > 300 µM
EC50 [2]: > 300 µM
ADRα1B Emax [2]: -
EC50 [3]: > 300 µM
ADRβ2 Emax [4]: -
EC50 [4]: > 300 µM

CNCC(O)c1ccccc1 (stereo not drawn) [Halostachine, halostachine]
Emax [1, 5]: 104%
EC50 [1]: 74 µM
EC50 [2]: 1.1 µM
Emax [2]: 77%
EC50 [3]: > 300 µM
ADRβ2 Emax [4]: -
EC50 [4]: > 300 µM

NCCc1ccc(O)cc1 [Tyramine, tyramine]
Emax [1, 5]: 77%
EC50 [1]: 9.5 µM
EC50 [2]: > 300 µM
ADRα1B Emax [2]: -
EC50 [3]: > 300 µM
ADRβ2 Emax [4]: -

CN(C)CCc1ccccc1 [Dimethylphenethylamine, N,N-dimethylphenethylamine]
Emax [1, 5]: 64%
EC50 [1]: 21 µM
EC50 [2]: 6.1 µM
Emax [2]: 19%
EC50 [3]: > 300 µM
ADRβ2 Emax [4]: -
EC50 [4]: > 300 µM

CC(CN)c1ccccc1 (stereo not drawn) [β-Methylphenethyl-amine, beta-methylphenethylamine]
Emax [1, 5]: 77%
EC50 [1]: 2.1 µM
EC50 [2]: > 300 µM
ADRα1B Emax [2]: -
EC50 [3]: > 300 µM
ADRβ2 Emax [4]: -
EC50 [4]: > 300 µM

CCC(C)CC(C)N (stereo not drawn) [1,3-Dimethylamylamine, 1,3-dimethylamylamine]
Emax at 300 µM [1]: 52%
EC50 [1]: > 300 µM
EC50 [2]: > 300 µM
ADRα1B Emax [2]: -
EC50 [3]: > 300 µM
ADRβ2 Emax [4]: -
EC50 [4]: > 300 µM

CNCC(O)c1ccc(O)cc1 (stereo not drawn) [p-Synephrine, p-synephrine]
Emax [1, 5]: 85%
EC50 [1]: 92 µM
Emax [2]: 91%
EC50 [3]: 100 µM
Emax ([3]; Chem-1, % of maximal signal obtained by adrenaline, average (95% CI)): 89%
potency at ADRα2A, times lower compared to adrenaline [3]: > 12000 times
ADRβ2 Emax [4]: -
EC50 [4]: > 300 µM

CC(C)NCC(O)c1ccc(O)cc1 (stereo not drawn) [Isopropyloctopamine, isopropyloctopamine]
Emax [1, 5]: 40%
EC50 [1]: 1.8 µM
EC50 [2]: > 300 µM
ADRα1B Emax [2]: -
EC50 [3]: > 300 µM
ADRβ2 Emax [4]: -
EC50 [4]: > 300 µM

CC(C)CC(C)N (stereo not drawn)
EC50 [1]: > 300 µM
EC50 [2]: > 300 µM
ADRα1B Emax [2]: -
EC50 [3]: > 300 µM
ADRβ2 Emax [4]: -
EC50 [4]: > 300 µM

CN(C)CCc1ccc(O)cc1 [Hordenine, hordenine]
Emax [1, 5]: 82%
EC50 [1]: 47 µM
EC50 [2]: 5.7 µM
Emax [2]: 37%
ADRα2A Emax ([3]; % of maximal signal obtained by adrenaline, average (95% CI)): 12%
EC50 [3]: 690 µM
potency at ADRα2A, times lower compared to adrenaline [3]: > 12000 times
ADRβ2 Emax [4]: -
EC50 [4]: > 300 µM
